Reference: patent publication US11731964B2, “Benzamide antibacterial agents” (Purdue Research Foundation, priority 2018, dated 2023)
Values after ≈ are worked out from the molar mass of the structure shown.

Key:
[1] = system: MRSA USA400 (NRS123); assay type: cell-based, Staphylococcus aureus
Source text: Resistance was classified as a greater than four-fold increase in the initial MIC, as reported elsewhere^30 (Farrell D J, Robbins M, Rhys-Williams W, Love W G. Investigation of the potential for mutational resistance to XF-73, retapamulin, mupirocin, fusidic acid, daptomycin, and vancomycin in methicillin-resistant Staphylococcus aureus isolates during a 55-passage study. Antimicrob Agents Chemother. 2011; 55(3):1177-81).

[2] = system: MRSA NRS119; test: MIC and MBC; assay type: cell-based, Staphylococcus aureus; details: Staphylococcus aureus, MRSA NRS119
Description: (§1) Bacteria were cultured in cation-adjusted Mueller Hinton Broth (for strains in Tables 1 and 4) or Brain Heart Infusion broth (for Enterococcus faecium) or Tryptic Soy Broth (all other bacteria) in a 96-well plate at 37° C. for at least 20 hours. The MIC was classified as the lowest concentration where no visual growth of bacteria was observed. The minimum bactericidal concentration (MBC) was tested by spotting 4 μL from wells with no growth onto Tryptic Soy Agar (TSA) plates. Plates were incubated at 37° C. for at least 18 hours before recording the MBC.

[3] = system: MRSA NRS386 (USA700); test: MIC and MBC; assay type: cell-based; details: Staphylococcus aureus, MRSA NRS386 (USA700)
Description: as §1

[4] = system: MRSA NRS384 (USA300); test: MIC and MBC; assay type: cell-based; details: Staphylococcus aureus, MRSA NRS384 (USA300)
Description: as §1

[5] = system: MRSA NRS385 (USA500); test: MIC and MBC; assay type: cell-based; details: Staphylococcus aureus, MRSA NRS385 (USA500)
Description: as §1

[6] = system: E. faecium ATCC; test: MIC and MBC; assay type: cell-based; details: Enterococcus faecium, E. faecium ATCC
Description: as §1

[7] = system: MRSA NRS387 (USA800); test: MIC and MBC; assay type: cell-based; details: Staphylococcus aureus, MRSA NRS387 (USA800)
Description: as §1

[8] = system: MRSA NRS123 (USA400); test: MIC and MBC; assay type: cell-based; details: Staphylococcus aureus, MRSA NRS123 (USA400)
Description: as §1

[9] = system: S. aureus; test: Screening of compounds for growth inhibition of S. aureus at 16 μg/mL (OD600); assay type: cell-based; details: compound at 16 μg/mL, 24 hours, compared to DMSO control
Description: Library compounds and analogs of F6 were dissolved in DMSO at 10 mg/mL. S. aureus was cultured in Mueller Hinton Broth to early exponential phase at which point culture aliquots were incubated with compounds at 16 μg/mL or DMSO in duplicates. The culture was continued at 37° C. for 24 hours. Aliquots (100 μL) of the cultures were dispensed into clear 96 well microtiter plates and OD600 was recorded. Percent normalized OD600 was obtained by using the equation [formula] wherein for a given compound, X is the OD600 of culture with the compound, Xo is that of media only and XT is the OD600 of the DMSO control.

[10] = system: murine macrophage (J774) cells; test: Toxicity profile, MTS viability assay; assay type: cell-based
Description: (§2) Compound F6 was assayed (at concentrations ranging from 2 μg/mL to 256 μg/mL) against murine macrophage (J774) and human colorectal (Caco-2) epithelial cell lines to determine the potential toxic effect to mammalian cells in vitro. Caco-2 cells were cultured in Dulbecco's Modified Eagle Medium (DMEM) supplemented with 20% fetal bovine serum (FBS), non-essential amino acids (1×), and penicillin-streptomycin at 37° C. with CO2 (5%). J774 cells were cultured in DMEM supplemented with 10% FBS. Upon reaching 85-90% confluency, cells were transferred to all wells of a 96-well tissue-culture treated plate. The cells were incubated in serum-free medium with the compounds (in triplicate) at 37° C. with CO2 (5%) for 24 hours. Cells exposed to equivalent concentrations of DMSO served as the negative control. The assay reagent MTS 3-(4,5-dimethylthiazol-2-yl)-5-(3-carboxymethoxyphenyl)-2-(4-sulfophenyl)-2H-tetrazolium) (Promega, Madison, Wis., USA) was subsequently added and the plate was incubated for four hours. Absorbance readings (at OD490) were taken using a kinetic microplate reader (Molecular Devices, Sunnyvale, Calif., USA). The quantity of viable cells after treatment with each compound was expressed as a percentage of the viability of DMSO-treated control cells (average of triplicate wells±standard deviation). The toxicity data were analyzed via a two-way ANOVA, with post hoc Sidak's multiple comparisons test (P<0.05), utilizing GraphPad Prism 6.0 (GraphPad Software, La Jolla, Calif., USA).

[11] = system: human colorectal (Caco-2) cells; test: Toxicity profile, MTS viability assay; assay type: cell-based; details: 24 hours, tested 2 to 256 μg/mL
Description: as §2

[12] = system: MRSA USA300; test: Time-kill analysis; assay type: cell-based, Staphylococcus aureus
Description: The time-kill analysis was performed as previously described^29. […] Aliquots (100 μL) were collected from each treatment after 0, 2, 4, 8, 12, and 24 hours of incubation at 37° C. and subsequently serially diluted in phosphate-buffered saline (PBS). Bacteria were then transferred to TSA plates and incubated at 37° C. for 18-20 hours before viable CFU/mL was determined.

[13] = system: E. faecalis ATCC 29212; test: MIC, broth microdilution; assay type: cell-based; details: Enterococcus faecalis, ATCC29212; E. faecalis ATCC 29212; read-out: MIC
Method in brief: (§3)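 Broth microdilution, 37 °C for ≥20 h, in cation-adjusted Mueller Hinton, Brain Heart Infusion (E. faecium) or Tryptic Soy Broth depending on strain; MIC is lowest concentration without visible growth. MBC by spotting clear wells onto Tryptic Soy Agar, read after ≥18 h at 37 °C.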

[14] = system: MRSA ATCC 33592; test: MIC, broth microdilution; assay type: cell-based; details: Staphylococcus aureus; MRSA ATCC 33592; read-out: MIC
Method in brief: as §3

[15] = system: VRSA VRS12; test: MIC and MBC; assay type: cell-based, S. aureus; details: Staphylococcus aureus, VRSA VRS12
Description: as §1

[16] = system: VISA NRS1; test: MIC and MBC; assay type: cell-based, S. aureus; details: Staphylococcus aureus, VISA NRS1
Description: as §1

In the case of `CC1CC(C)CN(S(=O)(=O)c2ccc(C(=O)Nc3nnc(-c4cccs4)o3)cc2)C1` (centres unmarked) [Compound F6], the “increase in MIC after the tenth passage” value ([1]; MRSA USA400) is reported as “one-fold increase”, the “increase in MIC by the 14th passage from the original MIC” value ([1]; MRSA USA400) is reported as “no additional increase in MIC” and the “change in MIC over nine passages” value ([1]; MRSA USA400, passages 1-9) is reported as “remained unchanged”. The MBC ([2]; read-out: MBC) was > 128 µg/mL, the MIC ([2]; read-out: MIC) was 2 µg/mL (≈ 4.48 µM) and the MBC ([3]; read-out: MBC) was > 128 µg/mL. The MIC ([3]; read-out: MIC) was 2 µg/mL (≈ 4.48 µM), the MBC ([4]; read-out: MBC) was > 128 µg/mL and the MIC ([4]; read-out: MIC) was 2 µg/mL (≈ 4.48 µM). The MBC ([5]; read-out: MBC) was > 128 µg/mL, the MIC ([5]; read-out: MIC) was 2 µg/mL (≈ 4.48 µM) and the MBC ([6]; read-out: MBC) was 128 µg/mL (≈ 287 µM). For the same compound, the MIC ([6]; read-out: MIC) was 2 µg/mL (≈ 4.48 µM), the MBC ([7]; read-out: MBC) was > 128 µg/mL and the MIC ([7]; read-out: MIC) was 2 µg/mL (≈ 4.48 µM). The MBC ([8]; read-out: MBC) was > 128 µg/mL, the MIC ([8]; read-out: MIC) was 2 µg/mL (≈ 4.48 µM) and the “inhibition of growth of S. aureus” value [9] was “significantly inhibited the growth”. For the same compound, the “concentration up to which non-toxic” value ([10]; J774 cells, 24 hours, tested 2 to 256 μg/mL) was “up to 128 μg/mL”, the “non-toxic concentration, fold higher than the MIC of F6 against MRSA” value ([10]; mouse and human, 24 h) was 63 fold and the “concentration up to which non-toxic” value [11] was “up to 128 μg/mL”. For the same compound, the “reduction in MRSA USA300 (time-kill)” value ([12]; 3×MIC, after a 24-hour incubation period) was 2.42 log10, the “in vitro effect against MRSA USA300” value ([12]; time-kill analysis and MBC) was “bacteriostatic” and the MIC [13] was 4 µg/mL (≈ 8.96 µM). For the same compound, the MIC [14] was 2 µg/mL (≈ 4.48 µM), the MBC ([15]; read-out: MBC) was > 128 µg/mL and the MIC ([15]; read-out: MIC) was 2 µg/mL (≈ 4.48 µM). The MBC ([16]; read-out: MBC) was > 128 µg/mL and the MIC ([16]; read-out: MIC) was 2 µg/mL (≈ 4.48 µM).
